{
  "source": "the supplement of paper PMC11061612",
  "key": {"[1]": {"tested_on": "NUGC-4 (Gastric Carcinoma)", "test": "Bliss excess, mean over the matrix (fraction); higher = more synergy", "outline": "(§1)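 Cell lines grown in DMEM/F12 or RPMI with 10% FBS were plated in 1536-well plates and held 24 hours at 37°C, 5% CO2 before 72 hours of exposure to two-drug dose matrices, with DMSO typically at 0.2%. CellTiter-Glo 2.0 luminescence gave viability, which was converted to inhibition. Vehicle wells were set to 0 and blank wells to 1. Combination Emax is the second-highest inhibition in the matrix, and Bliss excess is the observed combination effect minus the expected EA + EB − EA·EB, where EA and EB are the single-agent effects.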"}, "NCI-H2722 (Mesothelioma) [2]": {"tested_on": "NCI-H2722 (Mesothelioma)", "test": "Bliss excess, mean over the matrix (fraction); higher = more synergy", "outline": "as §1"}, "[3]": {"tested_on": "Detroit562 (Head and Neck Carcinoma)", "test": "Bliss excess, mean over the matrix (fraction); higher = more synergy", "outline": "as §1"}, "BPH-1 (Non-Cancerous) [4]": {"tested_on": "BPH-1 (Non-Cancerous)", "test": "Bliss excess, mean over the matrix (fraction); higher = more synergy", "outline": "as §1"}, "BE2-M17 (Neuroblastoma) [5]": {"tested_on": "BE2-M17 (Neuroblastoma)", "test": "Bliss excess, mean over the matrix (fraction); higher = more synergy", "outline": "as §1"}, "[6]": {"tested_on": "OV-56 (Ovarian Carcinoma)", "test": "Bliss excess, mean over the matrix (fraction); higher = more synergy", "outline": "as §1"}, "[7]": {"tested_on": "NCI-H209 (Small Cell Lung Carcinoma)", "test": "Bliss excess, mean over the matrix (fraction); higher = more synergy", "outline": "as §1"}, "[8]": {"tested_on": "SW1573 (Lung Adenocarcinoma)", "test": "Bliss excess, mean over the matrix (fraction); higher = more synergy", "outline": "as §1"}, "[9]": {"tested_on": "BFTC-909 (Kidney Carcinoma)", "test": "Bliss excess, mean over the matrix (fraction); higher = more synergy", "outline": "as §1"}, "[10]": {"tested_on": "OE21 (Esophageal Squamous Cell Carcinoma)", "test": "Bliss excess, mean over the matrix (fraction); higher = more synergy", "outline": "as §1"}, "[11]": {"tested_on": "L-428 (Hodgkin's Lymphoma)", "test": "Bliss excess, mean over the matrix (fraction); higher = more synergy", "outline": "as §1"}, "[12]": {"tested_on": "KMRC-20 (Kidney Carcinoma)", "test": "Bliss excess, mean over the matrix (fraction); higher = more synergy", "outline": "as §1"}, "[13]": {"tested_on": "FTC-133 (Thyroid Gland Carcinoma)", "test": "Bliss excess, mean over the matrix (fraction); higher = more synergy", "outline": "as §1"}, "[14]": {"tested_on": "MHH-CALL-2 (B-Lymphoblastic Leukemia)", "test": "Bliss excess, mean over the matrix (fraction); higher = more synergy", "outline": "as §1"}, "[15]": {"tested_on": "HuH-7 (Hepatocellular Carcinoma)", "test": "Bliss excess, mean over the matrix (fraction); higher = more synergy", "outline": "as §1"}, "[16]": {"tested_on": "Hs-746T (Gastric Carcinoma)", "test": "Bliss excess, mean over the matrix (fraction); higher = more synergy", "outline": "as §1"}, "[17]": {"tested_on": "CAL-33 (Oral Cavity Carcinoma)", "test": "Bliss excess, mean over the matrix (fraction); higher = more synergy", "outline": "as §1"}, "NCI-H2052 (Mesothelioma) [18]": {"tested_on": "NCI-H2052 (Mesothelioma)", "test": "Bliss excess, mean over the matrix (fraction); higher = more synergy", "outline": "as §1"}, "[19]": {"tested_on": "LCLC-97TM1 (Non-Small Cell Lung Carcinoma)", "test": "Bliss excess, mean over the matrix (fraction); higher = more synergy", "outline": "as §1"}, "[20]": {"tested_on": "NCI-H1568 (Lung Adenocarcinoma)", "test": "Bliss excess, mean over the matrix (fraction); higher = more synergy", "outline": "as §1"}, "[21]": {"tested_on": "ALL-PO (B-Lymphoblastic Leukemia)", "test": "Bliss excess, mean over the matrix (fraction); higher = more synergy", "outline": "as §1"}, "[22]": {"tested_on": "HeLa (Cervical Carcinoma)", "test": "Bliss excess, mean over the matrix (fraction); higher = more synergy", "outline": "as §1"}, "[23]": {"tested_on": "NUGC-4 (Gastric Carcinoma)", "test": "combination Emax (second highest fraction inhibited in the dose matrix, 72 h); higher = more inhibition; extreme values may be limits of the assay", "outline": "as §1"}, "NCI-H2722 (Mesothelioma) [24]": {"tested_on": "NCI-H2722 (Mesothelioma)", "test": "combination Emax (second highest fraction inhibited in the dose matrix, 72 h); higher = more inhibition; extreme values may be limits of the assay", "outline": "as §1"}, "[25]": {"tested_on": "Detroit562 (Head and Neck Carcinoma)", "test": "combination Emax (second highest fraction inhibited in the dose matrix, 72 h); higher = more inhibition; extreme values may be limits of the assay", "outline": "as §1"}, "BPH-1 (Non-Cancerous) [26]": {"tested_on": "BPH-1 (Non-Cancerous)", "test": "combination Emax (second highest fraction inhibited in the dose matrix, 72 h); higher = more inhibition; extreme values may be limits of the assay", "outline": "as §1"}, "BE2-M17 (Neuroblastoma) [27]": {"tested_on": "BE2-M17 (Neuroblastoma)", "test": "combination Emax (second highest fraction inhibited in the dose matrix, 72 h); higher = more inhibition; extreme values may be limits of the assay", "outline": "as §1"}, "[28]": {"tested_on": "OV-56 (Ovarian Carcinoma)", "test": "combination Emax (second highest fraction inhibited in the dose matrix, 72 h); higher = more inhibition; extreme values may be limits of the assay", "outline": "as §1"}, "[29]": {"tested_on": "NCI-H209 (Small Cell Lung Carcinoma)", "test": "combination Emax (second highest fraction inhibited in the dose matrix, 72 h); higher = more inhibition; extreme values may be limits of the assay", "outline": "as §1"}, "[30]": {"tested_on": "SW1573 (Lung Adenocarcinoma)", "test": "combination Emax (second highest fraction inhibited in the dose matrix, 72 h); higher = more inhibition; extreme values may be limits of the assay", "outline": "as §1"}, "[31]": {"tested_on": "BFTC-909 (Kidney Carcinoma)", "test": "combination Emax (second highest fraction inhibited in the dose matrix, 72 h); higher = more inhibition; extreme values may be limits of the assay", "outline": "as §1"}, "[32]": {"tested_on": "OE21 (Esophageal Squamous Cell Carcinoma)", "test": "combination Emax (second highest fraction inhibited in the dose matrix, 72 h); higher = more inhibition; extreme values may be limits of the assay", "outline": "as §1"}, "[33]": {"tested_on": "L-428 (Hodgkin's Lymphoma)", "test": "combination Emax (second highest fraction inhibited in the dose matrix, 72 h); higher = more inhibition; extreme values may be limits of the assay", "outline": "as §1"}, "[34]": {"tested_on": "KMRC-20 (Kidney Carcinoma)", "test": "combination Emax (second highest fraction inhibited in the dose matrix, 72 h); higher = more inhibition; extreme values may be limits of the assay", "outline": "as §1"}, "[35]": {"tested_on": "FTC-133 (Thyroid Gland Carcinoma)", "test": "combination Emax (second highest fraction inhibited in the dose matrix, 72 h); higher = more inhibition; extreme values may be limits of the assay", "outline": "as §1"}, "[36]": {"tested_on": "MHH-CALL-2 (B-Lymphoblastic Leukemia)", "test": "combination Emax (second highest fraction inhibited in the dose matrix, 72 h); higher = more inhibition; extreme values may be limits of the assay", "outline": "as §1"}, "[37]": {"tested_on": "HuH-7 (Hepatocellular Carcinoma)", "test": "combination Emax (second highest fraction inhibited in the dose matrix, 72 h); higher = more inhibition; extreme values may be limits of the assay", "outline": "as §1"}, "[38]": {"tested_on": "Hs-746T (Gastric Carcinoma)", "test": "combination Emax (second highest fraction inhibited in the dose matrix, 72 h); higher = more inhibition; extreme values may be limits of the assay", "outline": "as §1"}, "[39]": {"tested_on": "CAL-33 (Oral Cavity Carcinoma)", "test": "combination Emax (second highest fraction inhibited in the dose matrix, 72 h); higher = more inhibition; extreme values may be limits of the assay", "outline": "as §1"}, "NCI-H2052 (Mesothelioma) [40]": {"tested_on": "NCI-H2052 (Mesothelioma)", "test": "combination Emax (second highest fraction inhibited in the dose matrix, 72 h); higher = more inhibition; extreme values may be limits of the assay", "outline": "as §1"}, "[41]": {"tested_on": "LCLC-97TM1 (Non-Small Cell Lung Carcinoma)", "test": "combination Emax (second highest fraction inhibited in the dose matrix, 72 h); higher = more inhibition; extreme values may be limits of the assay", "outline": "as §1"}, "[42]": {"tested_on": "NCI-H1568 (Lung Adenocarcinoma)", "test": "combination Emax (second highest fraction inhibited in the dose matrix, 72 h); higher = more inhibition; extreme values may be limits of the assay", "outline": "as §1"}, "[43]": {"tested_on": "ALL-PO (B-Lymphoblastic Leukemia)", "test": "combination Emax (second highest fraction inhibited in the dose matrix, 72 h); higher = more inhibition; extreme values may be limits of the assay", "outline": "as §1"}, "[44]": {"tested_on": "HeLa (Cervical Carcinoma)", "test": "combination Emax (second highest fraction inhibited in the dose matrix, 72 h); higher = more inhibition; extreme values may be limits of the assay", "outline": "as §1"}},
  "data": [
    {"smiles": "CC(=O)c1c(C)c2cnc(Nc3ccc(N4CCNCC4)cn3)nc2n(C2CCCC2)c1=O", "note": "[Palbociclib] + CN(CC[C@H](CSC1=CC=CC=C1)NC2=C(C=C(C=C2)S(=O)(=O)NC(=O)C3=CC=C(C=C3)N4CCC(CC4)[C@H](C5=CC=CC=C5C6=CC=C(C=C6)Cl)O)S(=O)(=O)C(F)(F)F)CCO [AZD4320] (first compound max 10 µM, 7x7, partner max 1 µM)", "values": [
      {"measurement": "Bliss excess", "setting": "[1]", "value": -0.0067},
      {"measurement": "Bliss excess", "setting": "NCI-H2722 (Mesothelioma) [2]", "value": -0.0497},
      {"measurement": "Bliss excess", "setting": "[3]", "value": 0.0001},
      {"measurement": "Bliss excess", "setting": "BPH-1 (Non-Cancerous) [4]", "value": -0.0818},
      {"measurement": "Bliss excess", "setting": "BE2-M17 (Neuroblastoma) [5]", "value": 0.0726},
      {"measurement": "Bliss excess", "setting": "[6]", "value": -0.062},
      {"measurement": "Bliss excess", "setting": "[7]", "value": 0.0266},
      {"measurement": "Bliss excess", "setting": "[8]", "value": -0.0486},
      {"measurement": "Bliss excess", "setting": "[9]", "value": -0.0576},
      {"measurement": "Bliss excess", "setting": "[10]", "value": 0.0269},
      {"measurement": "Bliss excess", "setting": "[11]", "value": -0.0128},
      {"measurement": "Bliss excess", "setting": "[12]", "value": -0.0504},
      {"measurement": "Bliss excess", "setting": "[13]", "value": -0.0778},
      {"measurement": "Bliss excess", "setting": "[14]", "value": -0.0428},
      {"measurement": "Bliss excess", "setting": "[15]", "value": -0.0254},
      {"measurement": "Bliss excess", "setting": "[16]", "value": -0.0386},
      {"measurement": "Bliss excess", "setting": "[17]", "value": -0.0398},
      {"measurement": "Bliss excess", "setting": "NCI-H2052 (Mesothelioma) [18]", "value": -0.0159},
      {"measurement": "Bliss excess", "setting": "[19]", "value": -0.0326},
      {"measurement": "Bliss excess", "setting": "[20]", "value": -0.0747},
      {"measurement": "Bliss excess", "setting": "[21]", "value": 0.0126},
      {"measurement": "Bliss excess", "setting": "[22]", "value": -0.0385},
      {"measurement": "combination Emax", "setting": "[23]", "value": 0.411},
      {"measurement": "combination Emax", "setting": "NCI-H2722 (Mesothelioma) [24]", "value": 0.283},
      {"measurement": "combination Emax", "setting": "[25]", "value": 0.633},
      {"measurement": "combination Emax", "setting": "BPH-1 (Non-Cancerous) [26]", "value": 0.592},
      {"measurement": "combination Emax", "setting": "BE2-M17 (Neuroblastoma) [27]", "value": 0.756},
      {"measurement": "combination Emax", "setting": "[28]", "value": 0.289},
      {"measurement": "combination Emax", "setting": "[29]", "value": 1},
      {"measurement": "combination Emax", "setting": "[30]", "value": 0.255},
      {"measurement": "combination Emax", "setting": "[31]", "value": 0.55},
      {"measurement": "combination Emax", "setting": "[32]", "value": 0.663},
      {"measurement": "combination Emax", "setting": "[33]", "value": 0.866},
      {"measurement": "combination Emax", "setting": "[34]", "value": 0.25},
      {"measurement": "combination Emax", "setting": "[35]", "value": 0.582},
      {"measurement": "combination Emax", "setting": "[36]", "value": 0.436},
      {"measurement": "combination Emax", "setting": "[37]", "value": 0.309},
      {"measurement": "combination Emax", "setting": "[38]", "value": 0.408},
      {"measurement": "combination Emax", "setting": "[39]", "value": 0.364},
      {"measurement": "combination Emax", "setting": "NCI-H2052 (Mesothelioma) [40]", "value": 0.296},
      {"measurement": "combination Emax", "setting": "[41]", "value": 0.252},
      {"measurement": "combination Emax", "setting": "[42]", "value": 0.515},
      {"measurement": "combination Emax", "setting": "[43]", "value": 1},
      {"measurement": "combination Emax", "setting": "[44]", "value": 0.117}
    ]}
  ]
}
